# Test results as given in US20040147459A1, “Method and composition for maintaining urinary tract health in the face of infections” (priority 2002, published 2004).
# Experiments:
# E. coli = conditions: cited from earlier work
# [1] = test system: E. coli in the urinary tract; assay: doctor-run trials of mannose dosages in urinary tract infections; format: in vivo; conditions: 2 g three times a day for acute infections; maintenance 1 g one to two times per day
# Text: Because it is difficult for many people to remember a medication that must be taken this often, it is herein disclosed to change this model, as disclosed in the table in FIG. 2. For acute infections, the method is to give a 2-gram (1 teaspoon) dose of mannose three times a day with meals. The maintenance dosage is one-half teaspoon (1 gram) one to two times per day. Children's dosages are half of the adult dosage. For women who experience UTIs after sexual relations, one teaspoon is used an hour prior to intimate relations and an additional one teaspoon immediately following. This regimen provides a quantity of mannose sufficient to remove a majority of E. coli in the urinary tract, while improving the ease of use and compliance.
Compound,binding to E. coli (E. coli; fructose contained in cranberry juice),effectiveness of the dosages in doctor-run trials [1],"effectiveness in binding to E. coli and inhibiting its attachment, relative to fructose (E. coli; compared with fructose)"
"O=C(CO)[C@@H](O)[C@H](O)[C@H](O)CO [fructose, reference compound]",can also bind to E. coli,,
O=C[C@@H](O)[C@@H](O)[C@H](O)[C@H](O)CO [D-mannose],,effective,ten times more effectively
